According to patent US11452292B2, “Biofilm inhibitor and method of inhibiting biofilm” (NDSU Research Foundation, priority 2017, dated 2022):
In brackets after ≈: the same amount, converted by molar mass. Where two headings read alike, the source gives them in different places.

Assays:
[1] = test system: C. sakazakii; assay: Biofilm amounts, CV assay, 24-well polystyrene plate; type: cell-based; details: Cronobacter sakazakii, 37° C.
Text: (§1) Data were expressed as OD600.

[2] = test system: S. marcescens; assay: as above; type: cell-based; details: Serratia marcescens, 30° C.
Text: as §1

[3] = test system: Y. enterocolitica; assay: Biofilm amounts, ATP assay, 24-well polystyrene plate; type: cell-based, Yersinia enterocolitica; details: for IC50: Yersinia enterocolitica, Y. enterocolitica
[4] = test system: total bacterial count; assay: Ground beef at 10° C., total bacterial count on PCA plates; type: cell-based; details: for total bacterial count in the presence of EAA: day 3, unsupplemented 9 log10; for Different from 0% (concentrations grouping differently from untreated control, Fisher's LSD and t-test): PCA, total bacterial count
Method: (§2) Ground beef was obtained from the NDSU Meat Lab (ag.ndsu.edu/ansc/facilities/shepperd-arena). Precautionary steps that the slaughter facility undertakes to prevent microbial contamination of muscle meat include rinses of the hot carcass with hot water and 2.5% lactic acid (Birko Corp., Henderson, Colo.). Prior to cutting the meat, cattle halves are incubated for two weeks at a temperature between 0 and 2.2° C. For this Example, meat from two animals was ground within the NDSU Meat Lab and consecutively transferred on ice to the research lab where this Experiment was conducted. Approximately 4 pound of ground meat was obtained from two independent slaughter events (FIG. 6). These two original meat samples are referred to as biological replicates throughout this study. Each biological replicate was weighed into five aliquots of 200 g that were supplemented with 0 g, 0.1 g, 0.5 g, 1 g, or 5 g of liquid EAA (Alfa Aesar, Ward Hill Mass.). A total of six aliquots of 10 g were produced from each 200 g aliquot to allow for two technical replicates and determination of bacterial counts at three different time points during the incubation period. Aliquots were stored in Ziploc bags at −20° C.
(§3) Meat samples were removed from the freezer and incubated at 10° C. for five days; bacterial counts were determined on days 1, 3, and 5. For one initial experiment, samples were removed after 1 h of incubation at 10° C. This aliquot is not included in FIG. 6.
(§4) The content of each bag was transferred into a stomacher bag and Maximum Recovery Diluent (MRD) was added to a total of 50 ml. Meat was homogenized in a Seward Stomacher 400 Circulator (Cole Parmer, Vernon Hills, Ill.). The total bacterial count of each homogenate was determined by plating serial dilutions on Plate Count Agar (PCA). Pseudomonads were determined with Pseudomonas Selective Agar (PSA), lactobacilli with All Purpose Tween agar (APT), B. thermospacta with Streptomycin sulphate, Thallous Acetate and Actidione agar (STAA), and Enterobacteriaceae with Violet Red Bile Glucose agar (VRBG). For the composition of these media, see TABLE 7 (BD: Becton Dickinson). Each serial dilution was plated onto two separate agar plates to allow for two plate replicates (FIG. 6).
Each experiment was performed in a total of 8 replicates (2 biological replicates×2 technical replicates×2 plate replicates). To prepare for analysis, the data sets were pre-processed by determining the averages for the 2 plate replicates. Data were analyzed for each EAA concentration and selective media and expressed as CFU/g of meat or log10 CFU/g of meat. The lower limit of detection was 49 CFU, which is the equivalent of 1.69 log10. This number was used for all experiments that yielded zero colonies from the undiluted homogenate. To determine log reductions, the log10 CFU/g of meat at a given concentration of EAA was subtracted from that obtained for the untreated control piece of meat. Average and standard errors were calculated across the two biological and two technical replicates. Statistical analysis was started with an Analysis of Variance (ANOVA) test that compared the means of the log10 CFU/g data across concentrations, days, and biological replicates to determine the main effects. For comparisons that determined statistically significant differences between the means (p-value below 0.05), Fisher's Least Significant Difference (LSD) test and a pairwise Student's t-test were performed as post hoc test to determine which of the groups were different from the others.

[5] = test system: Enterobacteriaceae; assay: Ground beef at 10° C., counts on VRBG plates; type: cell-based; details: for Different from 0% (concentrations grouping differently from untreated control, Fisher's LSD and t-test): VRGB, Enterobacteriaceae
Method: as §2, §3
as §4, with “Each serial dilution was plated onto two separate agar plates to allow for two plate replicates (FIG. 6).” left out
Each experiment was performed in a total of 8 replicates (2 biological replicates×2 technical replicates×2 plate replicates). […] Data were analyzed for each EAA concentration and selective media and expressed as CFU/g of meat or log10 CFU/g of meat. […] Average and standard errors were calculated across the two biological and two technical replicates. […] For comparisons that determined statistically significant differences between the means (p-value below 0.05), Fisher's Least Significant Difference (LSD) test and a pairwise Student's t-test were performed as post hoc test to determine which of the groups were different from the others.

[6] = test system: E. coli O157:H7; type: cell-based, Escherichia coli O157:H7; details: 0.5% EAA
[7] = test system: S. enterica; type: cell-based, Salmonella enterica serovar Typhimurium
[8] = test system: tested bacterial pathogens; assay: Biofilm in silicone tubing, EAA flush, ATP assay, summary over strains; type: cell-based
Text: An AV Fistula Needle 17 Ga.

[9] = test system: S. enterica; details: cited from earlier work
[10] = test system: E. coli CFT073; assay: Biofilm in silicone tubing, EAA flush, CV assay
[11] = test system: E. coli CFT073; assay: Biofilm in silicone tubing, EAA flush, ATP assay
[12] = test system: Y. enterocolitica; assay: Biofilm in silicone tubing, EAA flush, ATP assay
[13] = test system: P. aeruginosa; assay: Viable cell counts from the biofilms in silicone tubing; details: 100 mg/ml of EAA, end of two week incubation
[14] = test system: Cronobacter sakazakii, Serratia marcescens, and Yersinia enterocolitica; assay: Growth and biofilm assays, summary over the three pathogens
[15] = test system: P. aeruginosa; assay: Viable cell counts in the liquid collected from the tubing before each treatment

CCOC(=O)CC(C)=O [EAA, ethyl acetoacetate]
IC50 [1]: 700 µg/mL (≈ 5.38 mM)
IC50 [2]: 5600 µg/mL (≈ 43 mM)
biofilm reduction by the ATP assay, fold equivalent ([3]; 25° C., 15 mg/ml of EAA): 200 fold
log ratio of biofilm reduction by the ATP assay ([3]; 25° C., 15 mg/ml of EAA): 2.3 log
biofilm amounts quantified by the ATP assay ([3]; 37° C., 10 mg/ml EAA): abolished
log reduction in biofilm amount, ATP assay ([3]; 37° C., 10 mg/ml of EAA): 2.04
reduction in biofilm amount, ATP assay, fold equivalent ([3]; 37° C., 10 mg/ml of EAA): 110 fold
IC50 ([3]; 25° C.): 2100 µg/mL (≈ 16.1 mM)
IC50 ([3]; 37° C.): 4290 µg/mL (≈ 33 mM)
log reduction, total bacterial count ([4]; 0.5% EAA, 3 days at 10° C.): 2.4
log reduction, total bacterial count ([4]; 0.5% of EAA, 1 day at 10° C.): 0.65
total bacterial count in the presence of EAA ([4]; 0.5% of EAA): 7.8 log10
reduction of total bacterial count ([4]; 2.5% EAA, 5 days at 10° C.): 4.3 logs
log reduction, total bacterial count ([4]; 2.5% of EAA, 1 day at 10° C.): 2.1
total bacterial count in the presence of EAA ([4]; 2.5% of EAA): 6.6 log10
Different from 0% (concentrations grouping differently from untreated control, Fisher's LSD and t-test) ([4]; 0.5% EAA): 0.5%
Different from 0% (concentrations grouping differently from untreated control, Fisher's LSD and t-test) ([4]; 2.5% EAA): 2.5%
log reduction, Enterobacteriaceae ([5]; 0.5% w/w EAA, 3 days at 10° C.): 2
log reductions, Enterobacteriaceae ([5]; 2.5% of EAA, 5 days at 10° C.): up to 3.8
Different from 0% (concentrations grouping differently from untreated control, Fisher's LSD and t-test) ([5]; 0.5% EAA): 0.5%
Different from 0% (concentrations grouping differently from untreated control, Fisher's LSD and t-test) ([5]; 2.5% EAA): 2.5%
externally added E. coli count in the presence of EAA ([6]; day 3, without EAA 5.2 log10): 4.1 log10
reduction in the E. coli count ([6]; day 5 at 10° C.): 1.6 log
reduction in the bacterial counts of S. enterica ([7]; 0.5% EAA, 10° C.): not observed
log reduction, Salmonella enterica serovar Typhimurium ([7]; 0.5% w/w EAA, 3 days at 10° C.): 0.2
reductions of ATP, all strains except S. marcescens ([8]; 10 mg/ml EAA): ≥ 80%
reduction of ATP content of the biofilm, almost all tested pathogens ([8]; 100 mg/ml of EAA flush): 100%
reduction of ATP content depending on the strain ([8]; 10 and 100 mg/ml EAA): 90-99%
mutagenicity [9]: No mutagenicity was detected
reduction in total biofilm biomass (CV), words ([10]; E. coli CFT073, 5 mg/ml of EAA): almost no reduction
reduction in biofilm biomass (CV), words ([10]; E. coli CFT073, 10 mg/ml EAA): No reduction
reduction in ATP content of the biofilm ([11]; E. coli CFT073, 5 mg/ml EAA): ~100%
percent reduction of ATP ([11]; E. coli CFT073, 100 mg/ml EAA): 98.5%
reduction in ATP content in the biofilm ([12]; 1 mg/ml EAA): 71%
percent reduction of ATP ([12]; 100 mg/ml EAA): 105%
reduction of cell counts within the biofilm [13]: about 3 logs
IC50 ([14]; read-out: IC50 values for biofilm amounts (summary)): ~1000 µg/mL (≈ 7.68 mM)
IC50 ([14]; read-out: IC50 values, range over all experiments): 310 to 5600 µg/mL (≈ 2.38 to 43 mM)
reduction of growth, biofilm amounts and live bacterial cell counts ([14]; three pathogens, maximal reduction): up to 3 logs
difference in viable cells in the liquid, EAA vs media flush ([15]; before the 2nd treatment, 100 mg/ml of EAA as first treatment): < 2 log
increase in viable cells in the liquid, EAA vs media flush ([15]; before the 4th treatment, 3 treatments of 100 mg/ml of EAA): ~1 log
difference in cell numbers, EAA vs media control ([15]; before the third treatment, two treatments of 100 mg/ml of EAA): approximately 2 logs
